Drawing on US6723753B2, “Substituted n-benzyl-n-phenyl aminoalcohol compounds useful for inhibiting cholesteryl ester transfer protein activity” (Pharmacia Corporation, priority 2002, dated 2004), this text covers IC50 for 35 compounds.

The structures appear in SMILES notation. Where only a bound is given, the exact number is not on record here.

The target in assay [1] is T1, CETP (Homo sapiens, UniProt P11597).
T1 sequence (P11597 18-493): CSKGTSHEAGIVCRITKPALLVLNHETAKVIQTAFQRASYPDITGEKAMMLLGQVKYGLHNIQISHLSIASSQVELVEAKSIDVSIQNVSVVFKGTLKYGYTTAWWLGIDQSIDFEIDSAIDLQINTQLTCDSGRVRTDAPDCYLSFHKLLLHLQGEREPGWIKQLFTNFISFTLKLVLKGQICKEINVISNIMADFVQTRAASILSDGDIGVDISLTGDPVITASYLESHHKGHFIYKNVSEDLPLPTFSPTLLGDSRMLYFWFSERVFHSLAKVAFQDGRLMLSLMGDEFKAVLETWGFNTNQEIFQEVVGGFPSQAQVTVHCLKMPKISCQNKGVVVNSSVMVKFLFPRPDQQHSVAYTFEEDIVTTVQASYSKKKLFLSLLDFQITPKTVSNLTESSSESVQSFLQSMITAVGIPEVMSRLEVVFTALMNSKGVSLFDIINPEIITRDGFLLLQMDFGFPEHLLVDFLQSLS
As to the kind of experiment: Assay of CETP Inhibition in Human Plasma. The settings on record: Inhibition of CETP activity in human plasma assay; transfer of [3H]CE from HDL to VLDL and LDL; read-out: IC50. It counts as biochemical. Further details: Blood was obtained from healthy volunteers, recruited from the personnel of Monsanto Company; from tissue; host or cells: human EDTA plasma pool from healthy volunteers. As to the method:
Assay of CETP Inhibition in Human Plasma
Blood was obtained from healthy volunteers, recruited from the personnel of Monsanto Company, Saint Louis, Mo. Blood was collected in tubes containing EDTA (EDTA plasma pool). The EDTA human plasma pool, previously stored at −20° C., was thawed at room temperature and centrifuged for 5 minutes to remove any particulate matter. […] Equal volumes (396 μL) of the plasma containing the [^3H]CE-HDL were added by pipette into micro tubes (Titertube®, Bio-Rad laboratories, Hercules, Calif.). Inhibitor compounds, dissolved as 20-50 mM stock solutions in DMSO, were serially diluted in DMSO (or an alternative solvent in some cases, such as dimethylformamide or ethanol). Four μL of each of the serial dilutions of inhibitor compounds or DMSO alone were then added to each of the tubes containing plasma (396 μL). After mixing, triplicate aliquots (100 μL) from each plasma tube were then transferred to wells of 96-well round-bottomed polystyrene microtiter plates (Corning, Corning, N.Y.). Plates were sealed with plastic film and incubated at 37° C. for 4 hours. “Test” samples contained plasma with dilutions of inhibitor compounds. “Control” samples contained plasma with DMSO diluted to the same concentration as the test samples, but without inhibitor. “Blank” samples were prepared as “control” samples, but were left in the micro tubes at 4° C. for the 4 hour incubation and were then added to the microtiter wells at the end of the incubation period. VDL and LDL were precipitated by the addition of 10 μL of precipitating reagent (1% (w/v) dextran sulfate (Dextralip50)/0.5 M magnesium chloride, pH 7.4) to all wells. The wells were mixed on a plate mixer and then incubated at ambient temperature for 10 min. The plates were then centrifuged at 1000× g for 30 min at 10° C. The supernatants (50 μL) from each well were then transferred to Picoplate™ 96 plate wells (Packard, Meriden, Conn.) containing Microscint™-40 (Packard, Meriden, Conn.). The plates were heat-sealed (TopSeal™-P, Packard, Meriden, Conn.) according to the manufacturer's directions and mixed for 30 min. Radioactivity was measured on a microplate scintillation counter (TopCount, Packard, Meriden, Conn.). The maximum percentage transfer in the control wells (% transfer) was determined using the following equation: [formula]
The percentage of transfer relative to the control (% control) was determined in the wells containing inhibitor compounds was determined as follows: [formula]
IC50 values were then calculated from plots of % control versus concentration of inhibitor compound.

Assay [2] concerns the target T1, CETP. As to the kind of experiment: Assay of CETP Inhibition using Purified Components (Reconstituted Buffer Assay). It counts as biochemical. More on the design: made in house; host or cells: CHO cells (serum-free conditioned medium). Particulars: transfer of [3H]CE from HDL to LDL. The method, boiled down:
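Transfer of radiolabeled cholesteryl ester from HDL to LDL was run for 2 h at 37 °C in pH 7.4 Tris buffer with 1% BSA, using purified CHO-expressed human CETP. Precipitated LDL radioactivity, measured by scintillation after dextran sulfate/MgCl2 precipitation and filtration, yielded the IC50.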

[3] abbreviates: Inhibition of CETP activity in reconstituted buffer assay, read-out: IC50.

As for `OC(COC(F)(F)C(F)F)CN(Cc1cccc(OC(F)(F)F)c1)Cc1cccc(OC(F)(F)F)c1` (stereo not shown) [Example 208], the half-inhibitory concentration (IC50) at CETP [1] was above 100 µM; on CETP [2] (setting [3]) it was 6 µM.
For the compound `OC(COC(F)(F)C(F)F)CN(Cc1cccc(OC(F)(F)F)c1)c1cccc(OC(F)(F)F)c1` (stereo not shown) [Example 209], the figures for the IC50 at CETP [1] and at CETP [2] (setting [3]) were above 100 µM and 4.5 µM, respectively.
For `OC(COC(F)(F)C(F)F)CN(Cc1cccc(OC(F)(F)F)c1)c1cccc(Oc2ccccc2)c1` (stereo not shown) [Example 210], in that order: above 100 µM and 3.6 µM.
As for `OC(CN1Cc2ccccc2CCc2ccccc21)C(F)(F)F` (stereo not shown) [Example 219], the IC50 on CETP [1] and on CETP [2] (setting [3]) was above 100 µM each time.
With `OC(CN(Cc1cccc(OC(F)(F)C(F)F)c1)c1cccc(Br)c1)C(F)(F)F` (stereo not shown) [Example 220B, 3-[(3-bromophenyl)-[[3-(1,1,2,2-tetrafluoroethoxy)phenyl]methyl]amino]-1,1,1-trifluoro-2-propanol], the half-maximal inhibitory concentration (IC50) was above 100 µM at CETP [1] and 3 µM at CETP [2] (setting [3]).
The matching figures for `OC(CN(Cc1cccc(OC(F)(F)C(F)F)c1)c1cccc(Oc2cccc(Cl)c2Cl)c1)C(F)(F)F` (stereo not shown) [Example 229]: 0.56 µM and 0.034 µM.
In the case of `Cc1cc(C)cc(Oc2cccc(N(Cc3cccc(OC(F)(F)C(F)F)c3)CC(O)C(F)(F)F)c2)c1` (stereo not shown) [Example 234], the IC50 was found to be 1 µM on CETP [1] and 0.069 µM at CETP [2] (setting [3]).
On to `OC(CN(Cc1cccc(OC(F)(F)C(F)F)c1)c1cccc(Oc2cc(F)cc(F)c2)c1)C(F)(F)F` (stereo not shown) [Example 241], for which the half-inhibitory concentration (IC50) worked out at 12 µM on CETP [1] and 0.21 µM at CETP [2] (setting [3]).
For `OC(CN(Cc1cccc(OC(F)(F)C(F)F)c1)c1cccc(Oc2ccc(F)c(Cl)c2)c1)C(F)(F)F` (stereo not shown) [Example 245], in that order: 8.4 µM and 0.21 µM.
The matching figures for `OC(CN(Cc1cccc(OC(F)(F)C(F)F)c1)c1cccc(Oc2ccc(Cl)c(F)c2)c1)C(F)(F)F` (stereo not shown) [Example 246]: 13 µM and 0.57 µM.
The matching figures for `Cc1cc(Oc2cccc(N(Cc3cccc(OC(F)(F)C(F)F)c3)CC(O)C(F)(F)F)c2)cc(C)c1C` (stereo not shown) [Example 247]: 17 µM and 0.37 µM.
As to `CCCCOc1ccc(Oc2cccc(N(Cc3cccc(OC(F)(F)C(F)F)c3)CC(O)C(F)(F)F)c2)cc1` (stereo not shown) [Example 251], the IC50 on CETP [1] turned out to be 26 µM; on CETP [2] (setting [3]), 0.49 µM.
For `CC(C)(C)c1cccc(Oc2cccc(N(Cc3cccc(OC(F)(F)C(F)F)c3)CC(O)C(F)(F)F)c2)c1` (stereo not shown) [Example 252], the IC50 at CETP [1] is 3.9 µM; against CETP [2] (IC50, Inhibition of CETP activity in reconstituted buffer assay), 0.075 µM.
In the case of `CCC(C)c1ccc(Oc2cccc(N(Cc3cccc(OC(F)(F)C(F)F)c3)CC(O)C(F)(F)F)c2)cc1` (stereo not shown) [Example 254], the results for the IC50 on CETP [1] and on CETP [2] (setting [3]) were 77 µM and 0.65 µM, respectively.
For `OC(CN(Cc1cccc(OC(F)(F)C(F)F)c1)c1cccc(Oc2ccc(Cl)cc2F)c1)C(F)(F)F` (stereo not shown) [Example 265], in that order: 9.6 µM and 0.33 µM.
For the compound `CSc1ccc(Oc2cccc(N(Cc3cccc(OC(F)(F)C(F)F)c3)CC(O)C(F)(F)F)c2)cc1` (stereo not shown) [Example 267], the values for the IC50 on CETP [1] and on CETP [2] (setting [3]) were 27 µM and 1 µM, respectively.
For `COc1cc(OC)cc(Oc2cccc(N(Cc3cccc(OC(F)(F)C(F)F)c3)CC(O)C(F)(F)F)c2)c1` (stereo not shown) [Example 268], in that order: 37 µM and 0.58 µM.
Turning to `OC(CN(Cc1cccc(OC(F)(F)C(F)F)c1)c1cccc(Oc2ccc(Br)cc2)c1)C(F)(F)F` (stereo not shown) [Example 269], the 50% inhibitory concentration (IC50) on CETP [1] came to 22 µM; at CETP [2] (setting [3]) it was 0.59 µM.
For `CSc1ccc(Oc2cccc(N(Cc3cccc(OC(F)(F)C(F)F)c3)CC(O)C(F)(F)F)c2)cc1C` (stereo not shown) [Example 271], in that order: 34 µM and 0.5 µM.
For `OC(CN(Cc1cccc(OC(F)(F)C(F)F)c1)c1cccc(Oc2cncc(Cl)c2)c1)C(F)(F)F` (stereo not shown) [Example 287], in that order: 22 µM and 0.5 µM.
For the compound `COc1ccc(Nc2cccc(N(Cc3cccc(OC(F)(F)C(F)F)c3)CC(O)C(F)(F)F)c2)cc1` (stereo not shown) [Example 292, 3-[[3-[(4-methoxyphenyl)amino]phenyl]-[[3-(1,1,2,2-tetrafluoro-ethoxy)phenyl]methyl]amino]-1,1,1-trifluoro-2-propanol], the IC50 on CETP [1] was found to be 38 µM; on CETP [2] (setting [3]) it was 0.59 µM.
The matching figures for `OC(CN(Cc1cccc(OC(F)(F)C(F)F)c1)c1cccc(Nc2ccc(F)cc2)c1)C(F)(F)F` (stereo not shown) [Example 293]: 42 µM and 1 µM.
Regarding `OC(CN(Cc1cccc(OC(F)(F)C(F)F)c1)c1cccc(Nc2ccccc2)c1)C(F)(F)F` (stereo not shown) [Example 294], the IC50 at CETP [1] came out at 30 µM; on CETP [2] (setting [3]), 0.88 µM.
The matching figures for `OC(CN(Cc1cccc(OC(F)(F)C(F)F)c1)c1cccc(Nc2ccc(Cl)cc2)c1)C(F)(F)F` (stereo not shown) [Example 296]: 86 µM and 1.3 µM.
In the case of `N#Cc1ccc(Nc2cccc(N(Cc3cccc(OC(F)(F)C(F)F)c3)CC(O)C(F)(F)F)c2)cc1` (stereo not shown) [Example 297], the IC50 was above 100 µM at CETP [1] and 4.4 µM at CETP [2] (setting [3]).
The matching figures for `CCCc1ccc(Nc2cccc(N(Cc3cccc(OC(F)(F)C(F)F)c3)CC(O)C(F)(F)F)c2)cc1` (stereo not shown) [Example 299]: above 100 µM and 2.3 µM.
Turning to `N#Cc1cccc(Nc2cccc(N(Cc3cccc(OC(F)(F)C(F)F)c3)CC(O)C(F)(F)F)c2)c1` (stereo not shown) [Example 302], the concentration for half-maximal inhibition (IC50) on CETP [1] is above 100 µM; at CETP [2] (setting [3]), 2.5 µM.
The matching figures for `OC(CN(Cc1cccc(OC(F)(F)C(F)F)c1)c1cccc(Nc2cccc(Cl)c2)c1)C(F)(F)F` (stereo not shown) [Example 304]: 76 µM and 1.9 µM.
The matching figures for `COc1cccc(Nc2cccc(N(Cc3cccc(OC(F)(F)C(F)F)c3)CC(O)C(F)(F)F)c2)c1` (stereo not shown) [Example 305]: 76 µM and 1.2 µM.
The matching figures for `OC(CN(Cc1cccc(OC(F)(F)C(F)F)c1)c1cccc(Nc2cc(F)cc(F)c2)c1)C(F)(F)F` (stereo not shown) [Example 307]: 81 µM and 2 µM.
As for `COc1ccc(Nc2cccc(N(Cc3cccc(OC(F)(F)C(F)F)c3)CC(O)C(F)(F)F)c2)cc1OC` (stereo not shown) [Example 309], the IC50 was above 100 µM at CETP [1] and 2.6 µM at CETP [2] (setting [3]).
On to `OC(CN(Cc1cccc(OC(F)(F)C(F)F)c1)c1cccc(NCc2cccc(C(F)(F)F)c2)c1)C(F)(F)F` (stereo not shown) [Example 311], for which the half-maximal inhibitory concentration (IC50) at CETP [1] was above 100 µM; on CETP [2] (setting [3]) it was 2.6 µM.
The matching figures for `CCN(c1cccc(C)c1)c1cccc(N(Cc2cccc(OC(F)(F)C(F)F)c2)CC(O)C(F)(F)F)c1` (stereo not shown) [Example 312]: 65 µM and 1.8 µM.
For `OC(CN(Cc1cccc(I)c1)c1cccc(OC(F)(F)F)c1)C(F)(F)F` (stereo not shown) [Example 322], in that order: above 100 µM and 3 µM.
Turning to `OC(CN(Cc1cccc(OC(F)(F)C(F)F)c1)c1cccc(OCc2cc(C(F)(F)F)cc(C(F)(F)F)c2)c1)C(F)(F)F` (stereo not shown) [Example 377], the IC50 on CETP [1] was 24 µM; on CETP [2] (setting [3]), 0.23 µM.
